Patent US20230355810A1, “Semifluorocarbon Compound Containing Contrast Agent” (B. Braun Melsungen AG, priority 2013, published 2023)

Key:
[1] = Density measurement of mixtures of MCT and F6H8; format: physicochemical; conditions: based on the total weight of the oil phase, FIG. 1C
From the text: By adapting the density of the oil phase to the density of the aqueous phase coalescence phenomena of the droplets as well as sedimentation phenomena, which destabilize the emulsion, can be decreased.
At about 38.5 wt.-% of F6H8 and about 61.5 wt.-% of MCT, (weight based on the total weight of the oil phase) the density of the oil mixture corresponds to the density of the aqueous phase.

[2] = Miscibility / solubility of the fluorinated compound in the oil (MCT, PFOB); format: physicochemical
Experimental: The emulsion of the invention comprises the semifluorinated compound and preferably the mid-chain triglyceride (MCT). According to one aspect of the invention the oil components of the emulsion form a homogeneous solution at 20° C. […] The oil phase may comprise further oil components such as long chain fatty acid triglycerides based on vegetable oil or marine oils such as fish oil. The amount of the further oil components is preferable adjusted that a completely miscible oil phase is maintained. Generally, the amount of oil components which are different from the semifluorinated compound and triglyceride b) which is preferably the MCT, are less than 50 weight percent (wt.-%), preferably less than 40 wt.-%, more preferably less than 30 wt.-%, further preferably less than 20 wt.-%, especially less than 10 wt.-%, in particular less than 5 wt.-% or essentially free, wherein the amount is based on the total weight of the oil components.
Perfluoroctylbromide (PFOB) is a known contrast agent for the magnetic resonance spectroscopy.

## CCCCCCCCC(F)(F)C(F)(F)C(F)(F)C(F)(F)C(F)(F)C(F)(F)F [Example F6H8, perfluorohexyloctane]
[1]
  share of F6H8 in the oil phase (rest MCT, about 61.5 wt.-%) at which the density of the oil mixture corresponds to the density of the aqueous phase: about 38.5 wt.-%
[2]; 20° C.
  miscibility with MCT: miscible at 20 °C

## FC(F)(F)C(F)(F)C(F)(F)C(F)(F)C(F)(F)C(F)(F)C(F)(F)C(F)(F)C(F)(F)C(F)(F)Br [PFDB, perfluorodecylbromide]
[2]
  solubility in PFOB: can be dissolved in PFOB

## FC(F)(F)C(F)(F)C(F)(F)C(F)(F)C(F)(F)C(F)(F)C(F)(F)C(F)(F)Br [PFOB, Perfluoroctylbromide]
[2]
  solubility in MCT: cannot be dissolved in MCT
